“Also recorded” adds a separate entry of the source.
Tests used:
NSCLC patients [1] = experiment: M10-898 clinical trial: survival by LSP status, C/P+veliparib vs C/P; format: in vivo, human; conditions: C/P+veliparib vs carboplatin/paclitaxel (C/P), FIG. 1 left
Excerpt: (§1) Time to death (overall survival, OS) for a given subject was defined as the number of days from the date that the subject was randomized to the date of the subject's death. All events of death were included, regardless of whether the event occurred while the subject was still taking veliparib/placebo or had previously discontinued veliparib/placebo.
(§2) Tumor samples for study were from biopsies taken prior to entry onto veliparib clinical trials M10-898 and M11-089. Tumor DNA/RNA was obtained by macrodissecting tumor area (>50% tumor content) from formalin-fixed, paraffin-embedded tumor slides. RNA and DNA was isolated using AllPrep kit (Qiagen).
RNAseq RPKM data of 52 LSP genes of Table 1 were obtained from sequenced samples of M10-898 clinical trial (https://clinicaltrials.gov/ct2/show/NCT01560104), purchased tissues and M11-089 (https://clinicaltrials.gov/ct2/show/NCT02106546). The RPKM data was log transformed and normalized in order to adjust for batch effects before entering the analyses. […]
FIG. 1 represents the impact of treatment and patient outcome in M10-898 as a function of LSP status in M10-898 (left) and M11-089 (right). […] The restricted mean survival time was calculated and is represented on the Y-axis.

NSCLC patients [2] = experiment: M11-089 clinical trial: survival by LSP status or stemness score, C/P+veliparib vs C/P; format: in vivo, human; conditions: for median overall survival in LSP- and LSP+ patients / survival (restricted mean survival time, hazard ratio) as a function of LSP status: M11-089; for median overall survival in LSP- and LSP+ patients: C/P+veliparib vs C/P alone, FIG. 2; for survival (restricted mean survival time, hazard ratio) as a function of LSP status: C/P+veliparib vs carboplatin/paclitaxel (C/P), LSP+ vs LSP- patients, FIG. 1 right; for survival in relation to stemness score (mRNAsi): M11-089 samples, stemness score >=0.5 vs <0.5, FIGS. 4 and 5
Excerpt: as §1, §2
RNAseq RPKM data of 52 LSP genes of Table 1 were obtained from sequenced samples of M10-898 clinical trial (https://clinicaltrials.gov/ct2/show/NCT01560104), purchased tissues and M11-089 (https://clinicaltrials.gov/ct2/show/NCT02106546). The RPKM data was log transformed and normalized in order to adjust for batch effects before entering the analyses. Unsupervised Clustering was performed on 52 LSP genes from M10-898 and purchased tissues to form 3 clusters of subtypes (AD (Adenocarcinoma), NE (Neuroendocrine), SQ (Squamous)), according to the consistency of known histology defined biologically distinct subtypes. The 52 LSP genes from M10-898 and purchased tissues together with the AD vs. nonAD labelling from unsupervised clustering is served as the training data. A shrunken centroid classifier is built based on the training data. The final classifier takes normalized RPKM data of 52 LSP genes as input, and outputs the probability of being nonAD subtype (prob (AD)=1-prob (nonAD)) for each RNAseq sample from M11-089. The subtype calls (nonAD vs. AD) is based on the probability strength. The subtype call will be labelled unknown If the absolute logarithm of odds (defined as Prob (nonAD)/Prob (AD)) is less than 0.15.
FIG. 1 represents the impact of treatment and patient outcome in M10-898 as a function of LSP status in M10-898 (left) and M11-089 (right). Patients were categorized as LSP− or LSP+ using RNA expression as depicted on the x-axis. Patients treated with carboplatin/paclitaxel (C/P) are listed in dotted lines, patients treated with C/P+veliparib (V) are listed in solid lines. The restricted mean survival time was calculated and is represented on the Y-axis.
Summary statistics for each comparison are shown below FIG. 2.
We examined the M11-089 samples to relate the stemness index to survival with Veliparib. In general, an index ranging from 0 to 1 is created for each tumor sample. Tumor cells closer to 1 are more similar to stem cells and more aggressive than tumor cells closer to 0.
We derived the stemness score from our samples based on stemness Index Derived using OCLR (mRNAsi) (T. M. Matta, et al., Cell, 2018, 173(2): 338-354), and methodology and code reference is based on the public available information (http://tcgabiolinks.fmrp.usp.br/PanCanStem/mRNAsi.html). The log gene expression for m11-089 is the batch effect corrected combined batch 1,2,3,4 data.

C[C@]1(c2nc3c(C(N)=O)cccc3[nH]2)CCCN1 [Veliparib, veliparib]
survival (restricted mean survival time, hazard ratio) as a function of LSP status (NSCLC patients [1]): statistically significant survival advantage only in the LSP+ population
survival (restricted mean survival time, hazard ratio) as a function of LSP status (NSCLC patients [1]; listed as veliparib): benefit observed in signature subgroup
median overall survival in LSP- and LSP+ patients (NSCLC patients [2]): statistically significant survival advantage only in the LSP+ population
median overall survival in LSP- and LSP+ patients (NSCLC patients [2]; listed as veliparib): increased Overall Survival (OS) observed in LSP positive NSCLC patients
survival (restricted mean survival time, hazard ratio) as a function of LSP status (NSCLC patients [2]): statistically significant survival advantage only in the LSP+ population
survival (restricted mean survival time, hazard ratio) as a function of LSP status (NSCLC patients [2]; listed as veliparib): benefit observed in signature subgroup
survival in relation to stemness score (mRNAsi) (NSCLC patients [2]): better survival
survival in relation to stemness score (mRNAsi) (NSCLC patients [2]; listed as veliparib): better survival; also recorded: provides a benefit to subgroup of patients

Reference: patent publication US20200129482A1, “TREATMENT OF NON-SMALL CELL LUNG CANCER” (AbbVie Inc., priority 2017, published 2020)
